In patent publication US9492471B2, “Methods of treating a disease or disorder associated with Bruton'S Tyrosine Kinase” (Celgene Avilomics Research, Inc., priority 2013, dated 2016):
Read-outs that look alike come from different tables or passages of the source.

What was measured:
Assay in all cases: HotSpot kinase profiling
Type in all cases: biochemical
CAMK2g = molecular target: T1, CAMK2g (Homo sapiens, UniProt Q13555)
T1 construct: purchased Reaction Biology Corp
In short: (§1)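 Radiometric kinase assay with P81 filter capture; each kinase was added to fresh substrate plus cofactors in reaction buffer and incubated 2 h at room temperature. Unreacted phosphate was washed off with 0.1% phosphoric acid before detection; percent inhibition is relative to DMSO control, averaged over replicates.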

CDK5/p25 = molecular target: T2, CDK5/p25 (Homo sapiens, UniProt Q00535)
T2 construct: purchased Reaction Biology Corp
In short: as §1

CHK1 = molecular target: T3, CHK1 (Homo sapiens, UniProt O14757)
T3 construct: purchased Reaction Biology Corp
T3 sequence (O14757 1-476): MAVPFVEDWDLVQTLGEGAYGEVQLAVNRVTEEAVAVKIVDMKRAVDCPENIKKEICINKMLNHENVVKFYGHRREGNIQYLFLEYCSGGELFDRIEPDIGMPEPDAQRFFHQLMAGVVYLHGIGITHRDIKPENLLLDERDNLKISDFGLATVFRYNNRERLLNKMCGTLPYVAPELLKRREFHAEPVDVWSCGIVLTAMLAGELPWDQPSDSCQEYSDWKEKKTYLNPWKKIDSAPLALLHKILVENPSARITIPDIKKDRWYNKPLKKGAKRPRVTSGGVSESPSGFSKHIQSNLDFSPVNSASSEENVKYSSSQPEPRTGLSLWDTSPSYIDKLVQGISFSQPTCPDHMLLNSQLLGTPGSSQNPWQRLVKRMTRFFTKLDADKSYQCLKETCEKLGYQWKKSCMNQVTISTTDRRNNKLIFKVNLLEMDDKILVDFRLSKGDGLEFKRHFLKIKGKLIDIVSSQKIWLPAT
In short: as §1

GRK6 = molecular target: T4, GRK6 (Homo sapiens, UniProt P43250)
T4 construct: purchased Reaction Biology Corp
In short: as §1

JNK1 = molecular target: T5, JNK1 (Homo sapiens, UniProt P45983)
T5 construct: purchased Reaction Biology Corp
In short: as §1

NEK6 = molecular target: T6, NEK6 (Homo sapiens, UniProt Q9HC98)
T6 construct: purchased Reaction Biology Corp
In short: as §1

P38b/MAPK11 = molecular target: T7, P38b/MAPK11 (Homo sapiens, UniProt Q15759)
T7 construct: purchased Reaction Biology Corp
In short: as §1

PAK2 = molecular target: T8, PAK2 (Homo sapiens, UniProt Q13177)
T8 construct: purchased Reaction Biology Corp
In short: as §1

PIM2 = molecular target: T9, PIM2 (Homo sapiens, UniProt Q9P1W9)
T9 construct: purchased Reaction Biology Corp
In short: as §1

RSK3 = molecular target: T10, RSK3 (Homo sapiens, UniProt Q15349)
T10 construct: purchased Reaction Biology Corp
In short: as §1

TAOK3/JIK = molecular target: T11, TAOK3/JIK (Homo sapiens, UniProt Q9H2K8)
T11 construct: purchased Reaction Biology Corp
T11 sequence (Q9H2K8 1-898): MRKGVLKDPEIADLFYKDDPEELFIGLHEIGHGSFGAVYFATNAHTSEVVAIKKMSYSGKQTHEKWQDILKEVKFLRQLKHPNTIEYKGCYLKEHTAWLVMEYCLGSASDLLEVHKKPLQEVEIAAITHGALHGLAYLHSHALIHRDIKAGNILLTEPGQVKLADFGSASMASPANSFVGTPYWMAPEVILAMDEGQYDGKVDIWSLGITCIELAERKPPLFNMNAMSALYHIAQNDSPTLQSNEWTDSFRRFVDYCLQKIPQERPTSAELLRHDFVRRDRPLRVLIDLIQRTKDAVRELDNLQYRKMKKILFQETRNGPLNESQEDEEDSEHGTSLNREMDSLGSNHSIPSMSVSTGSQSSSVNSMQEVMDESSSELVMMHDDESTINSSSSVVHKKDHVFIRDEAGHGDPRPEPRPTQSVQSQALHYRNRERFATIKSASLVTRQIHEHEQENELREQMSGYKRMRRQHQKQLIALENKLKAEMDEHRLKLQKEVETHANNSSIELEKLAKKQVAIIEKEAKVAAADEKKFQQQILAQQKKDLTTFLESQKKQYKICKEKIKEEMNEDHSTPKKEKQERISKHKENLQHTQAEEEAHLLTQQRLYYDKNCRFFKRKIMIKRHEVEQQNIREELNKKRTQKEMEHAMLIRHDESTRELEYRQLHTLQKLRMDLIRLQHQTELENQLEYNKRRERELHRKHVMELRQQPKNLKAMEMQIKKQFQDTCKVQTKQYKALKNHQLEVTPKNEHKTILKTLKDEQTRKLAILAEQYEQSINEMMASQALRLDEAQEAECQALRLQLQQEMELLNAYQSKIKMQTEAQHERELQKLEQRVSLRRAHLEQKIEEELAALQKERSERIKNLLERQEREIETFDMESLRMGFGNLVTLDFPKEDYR
In short: as §1

ZAK/MLTK = molecular target: T12, ZAK/MLTK (Homo sapiens, UniProt Q9NYL2)
T12 construct: purchased Reaction Biology Corp
In short: as §1

[1] = read-out: % Enzyme Activity (relative to DMSO controls) Run 1
[2] = read-out: % Enzyme Activity (relative to DMSO controls) Run 2

T1 sequence (Q13555 whole entry): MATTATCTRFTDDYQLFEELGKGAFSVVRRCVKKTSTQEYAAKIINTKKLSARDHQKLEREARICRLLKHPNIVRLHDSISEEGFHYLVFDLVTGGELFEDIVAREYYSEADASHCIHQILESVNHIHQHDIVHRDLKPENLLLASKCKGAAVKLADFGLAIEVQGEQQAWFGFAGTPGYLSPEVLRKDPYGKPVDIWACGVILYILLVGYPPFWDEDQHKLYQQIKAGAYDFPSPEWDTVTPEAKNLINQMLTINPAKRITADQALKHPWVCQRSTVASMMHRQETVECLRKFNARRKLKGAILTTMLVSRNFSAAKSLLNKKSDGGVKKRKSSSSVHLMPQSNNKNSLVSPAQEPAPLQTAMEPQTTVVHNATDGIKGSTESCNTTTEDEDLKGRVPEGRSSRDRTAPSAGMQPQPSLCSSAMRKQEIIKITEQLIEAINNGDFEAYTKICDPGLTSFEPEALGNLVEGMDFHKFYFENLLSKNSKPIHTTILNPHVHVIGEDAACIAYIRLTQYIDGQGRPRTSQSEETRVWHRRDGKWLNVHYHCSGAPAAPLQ
T5 sequence (P45983 whole entry): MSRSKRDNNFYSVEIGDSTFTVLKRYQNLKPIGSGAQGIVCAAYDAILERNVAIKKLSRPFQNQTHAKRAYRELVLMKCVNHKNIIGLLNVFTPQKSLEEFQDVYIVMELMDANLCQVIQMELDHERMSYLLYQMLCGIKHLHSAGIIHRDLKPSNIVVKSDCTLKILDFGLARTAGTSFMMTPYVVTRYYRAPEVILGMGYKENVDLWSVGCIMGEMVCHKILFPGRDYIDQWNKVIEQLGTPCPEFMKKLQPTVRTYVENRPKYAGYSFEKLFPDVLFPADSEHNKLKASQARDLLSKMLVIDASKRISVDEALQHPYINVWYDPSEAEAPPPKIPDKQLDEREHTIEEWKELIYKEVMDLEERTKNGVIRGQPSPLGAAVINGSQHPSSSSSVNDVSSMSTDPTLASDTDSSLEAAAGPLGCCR
T7 sequence (Q15759 whole entry): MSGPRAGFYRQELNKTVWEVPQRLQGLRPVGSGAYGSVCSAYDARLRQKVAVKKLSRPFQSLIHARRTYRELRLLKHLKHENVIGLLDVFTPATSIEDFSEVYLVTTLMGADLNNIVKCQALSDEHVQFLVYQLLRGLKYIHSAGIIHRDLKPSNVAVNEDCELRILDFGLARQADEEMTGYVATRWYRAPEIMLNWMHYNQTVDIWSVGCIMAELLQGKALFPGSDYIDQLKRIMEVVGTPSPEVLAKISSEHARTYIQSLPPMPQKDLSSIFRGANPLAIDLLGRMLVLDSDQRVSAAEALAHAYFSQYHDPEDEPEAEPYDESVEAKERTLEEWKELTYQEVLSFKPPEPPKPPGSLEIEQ
T9 sequence (Q9P1W9 whole entry): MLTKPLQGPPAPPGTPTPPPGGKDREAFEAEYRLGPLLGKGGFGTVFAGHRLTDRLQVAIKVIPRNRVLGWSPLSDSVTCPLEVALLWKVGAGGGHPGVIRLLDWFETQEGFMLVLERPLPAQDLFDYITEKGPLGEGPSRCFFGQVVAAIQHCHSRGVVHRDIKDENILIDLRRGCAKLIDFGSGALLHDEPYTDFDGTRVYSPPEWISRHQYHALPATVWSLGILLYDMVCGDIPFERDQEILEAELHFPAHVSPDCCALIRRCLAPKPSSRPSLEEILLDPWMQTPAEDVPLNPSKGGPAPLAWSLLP
T10 sequence (Q15349 whole entry): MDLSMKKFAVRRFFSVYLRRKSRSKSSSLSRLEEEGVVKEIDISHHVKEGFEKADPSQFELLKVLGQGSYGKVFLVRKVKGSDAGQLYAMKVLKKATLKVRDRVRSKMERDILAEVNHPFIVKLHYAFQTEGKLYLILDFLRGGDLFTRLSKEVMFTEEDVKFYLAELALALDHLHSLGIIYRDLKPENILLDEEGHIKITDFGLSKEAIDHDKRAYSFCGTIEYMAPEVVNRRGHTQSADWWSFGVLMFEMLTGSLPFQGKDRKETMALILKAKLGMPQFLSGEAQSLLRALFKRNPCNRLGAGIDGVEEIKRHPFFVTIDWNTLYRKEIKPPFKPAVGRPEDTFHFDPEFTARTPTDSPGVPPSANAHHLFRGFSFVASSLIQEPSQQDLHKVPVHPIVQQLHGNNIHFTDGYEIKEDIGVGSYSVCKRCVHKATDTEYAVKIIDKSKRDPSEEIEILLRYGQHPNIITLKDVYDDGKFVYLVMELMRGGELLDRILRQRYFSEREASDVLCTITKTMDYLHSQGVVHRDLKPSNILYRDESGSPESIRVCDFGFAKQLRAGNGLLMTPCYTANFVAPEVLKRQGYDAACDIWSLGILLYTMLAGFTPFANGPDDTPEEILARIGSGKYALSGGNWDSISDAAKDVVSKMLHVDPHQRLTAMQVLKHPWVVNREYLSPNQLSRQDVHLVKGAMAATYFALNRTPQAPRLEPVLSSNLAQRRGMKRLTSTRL
T2 sequence (Q00535 whole entry): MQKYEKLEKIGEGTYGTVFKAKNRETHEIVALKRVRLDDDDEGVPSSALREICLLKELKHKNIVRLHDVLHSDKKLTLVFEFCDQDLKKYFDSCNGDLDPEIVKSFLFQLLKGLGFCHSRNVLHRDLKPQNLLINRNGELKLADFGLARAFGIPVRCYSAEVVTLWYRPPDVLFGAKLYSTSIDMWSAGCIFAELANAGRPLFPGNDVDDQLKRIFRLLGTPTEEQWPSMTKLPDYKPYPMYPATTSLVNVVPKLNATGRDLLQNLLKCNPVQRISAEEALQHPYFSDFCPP
T2 sequence (Q15078 99-307 partner limits assumed): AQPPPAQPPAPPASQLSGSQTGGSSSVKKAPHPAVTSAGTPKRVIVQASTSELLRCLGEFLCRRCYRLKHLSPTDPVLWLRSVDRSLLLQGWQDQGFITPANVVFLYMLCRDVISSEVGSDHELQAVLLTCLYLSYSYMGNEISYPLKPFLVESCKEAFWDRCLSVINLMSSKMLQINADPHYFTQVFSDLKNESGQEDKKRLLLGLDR
T4 sequence (P43250 whole entry): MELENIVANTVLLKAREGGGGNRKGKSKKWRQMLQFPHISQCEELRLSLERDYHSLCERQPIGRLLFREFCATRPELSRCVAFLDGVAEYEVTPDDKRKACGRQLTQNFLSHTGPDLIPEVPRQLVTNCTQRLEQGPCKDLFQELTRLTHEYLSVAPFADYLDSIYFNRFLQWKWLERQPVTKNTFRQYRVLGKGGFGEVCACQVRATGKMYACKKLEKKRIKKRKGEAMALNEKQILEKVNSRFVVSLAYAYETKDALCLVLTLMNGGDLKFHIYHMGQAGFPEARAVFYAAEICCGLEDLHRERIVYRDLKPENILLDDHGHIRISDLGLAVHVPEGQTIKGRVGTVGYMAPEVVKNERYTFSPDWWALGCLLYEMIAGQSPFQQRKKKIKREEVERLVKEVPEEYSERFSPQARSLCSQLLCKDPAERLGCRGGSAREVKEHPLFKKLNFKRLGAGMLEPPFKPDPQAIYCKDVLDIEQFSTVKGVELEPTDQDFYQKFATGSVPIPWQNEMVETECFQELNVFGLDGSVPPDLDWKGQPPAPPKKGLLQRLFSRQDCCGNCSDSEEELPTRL
T6 sequence (Q9HC98 whole entry): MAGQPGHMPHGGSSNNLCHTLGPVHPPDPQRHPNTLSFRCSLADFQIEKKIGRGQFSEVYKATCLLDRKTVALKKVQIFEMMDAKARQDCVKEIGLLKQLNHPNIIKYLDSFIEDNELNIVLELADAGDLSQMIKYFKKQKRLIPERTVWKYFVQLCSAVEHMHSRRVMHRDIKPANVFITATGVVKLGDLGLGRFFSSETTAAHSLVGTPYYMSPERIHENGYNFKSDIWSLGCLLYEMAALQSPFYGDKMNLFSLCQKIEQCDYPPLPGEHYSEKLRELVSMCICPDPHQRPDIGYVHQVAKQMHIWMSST
T8 sequence (Q13177 whole entry): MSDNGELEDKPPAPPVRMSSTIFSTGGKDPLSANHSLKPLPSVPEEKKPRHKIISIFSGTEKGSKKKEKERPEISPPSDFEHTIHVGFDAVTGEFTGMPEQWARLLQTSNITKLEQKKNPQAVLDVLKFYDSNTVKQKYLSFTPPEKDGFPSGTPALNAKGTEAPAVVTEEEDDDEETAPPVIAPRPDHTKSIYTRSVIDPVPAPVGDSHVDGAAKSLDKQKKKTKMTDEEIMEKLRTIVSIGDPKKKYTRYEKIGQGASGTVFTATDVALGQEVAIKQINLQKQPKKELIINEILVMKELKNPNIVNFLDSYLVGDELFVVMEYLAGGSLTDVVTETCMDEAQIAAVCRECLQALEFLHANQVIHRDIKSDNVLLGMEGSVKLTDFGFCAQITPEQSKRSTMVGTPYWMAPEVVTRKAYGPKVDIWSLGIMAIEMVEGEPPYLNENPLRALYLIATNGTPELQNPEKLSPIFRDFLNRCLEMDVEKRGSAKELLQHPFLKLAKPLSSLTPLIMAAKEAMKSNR

C=CC(=O)Nc1cccc(Nc2nc(Nc3ccc(OCCOC)c(F)c3)ncc2F)c1 [Compound 2] showed an inhibition at 3 µM (CAMK2g) of -7.18%, a remaining activity at 3 µM (CAMK2g; [1]) of 104% and a remaining activity at 3 µM (CAMK2g; [2]) of 111%. The inhibition at 3 µM (CDK5/p25) was 9.1%, the remaining activity at 3 µM (CDK5/p25; [1]) was 89.5% and the remaining activity at 3 µM (CDK5/p25; [2]) was 92.3%. It also gave an inhibition at 3 µM (CHK1) of 6.15%, a remaining activity at 3 µM (CHK1; [1]) of 93.1% and a remaining activity at 3 µM (CHK1; [2]) of 94.6%. The inhibition at 3 µM (GRK6) was -3.03%, the remaining activity at 3 µM (GRK6; [1]) was 102% and the remaining activity at 3 µM (GRK6; [2]) was 104%. For the same molecule, the inhibition at 3 µM (JNK1) was 12.1%, the remaining activity at 3 µM (JNK1; [1]) was 88.1% and the remaining activity at 3 µM (JNK1; [2]) was 87.7%. The inhibition at 3 µM (NEK6) was -5.69%, the remaining activity at 3 µM (NEK6; [1]) was 106% and the remaining activity at 3 µM (NEK6; [2]) was 105%. The inhibition at 3 µM (P38b/MAPK11) was -1.41%, the remaining activity at 3 µM (P38b/MAPK11; [1]) was 102% and the remaining activity at 3 µM (P38b/MAPK11; [2]) was 101%. It also gave an inhibition at 3 µM (PAK2) of 4.8%, a remaining activity at 3 µM (PAK2; [1]) of 95.5% and a remaining activity at 3 µM (PAK2; [2]) of 94.9%. For the same molecule, the inhibition at 3 µM (PIM2) was -32.5%, the remaining activity at 3 µM (PIM2; [1]) was 136% and the remaining activity at 3 µM (PIM2; [2]) was 129%. For the same molecule, the inhibition at 3 µM (RSK3) was 14.5%, the remaining activity at 3 µM (RSK3; [1]) was 85.8% and the remaining activity at 3 µM (RSK3; [2]) was 85.2%. The inhibition at 3 µM (TAOK3/JIK) was 7.74%, the remaining activity at 3 µM (TAOK3/JIK; [1]) was 94.5% and the remaining activity at 3 µM (TAOK3/JIK; [2]) was 90%. It also gave an inhibition at 3 µM (ZAK/MLTK) of 15.7%, a remaining activity at 3 µM (ZAK/MLTK; [1]) of 83.7% and a remaining activity at 3 µM (ZAK/MLTK; [2]) of 85%.
